Measured values from publication PMC4465922 (Nature chemical biology, 2015).

Target: T1, α2C-adrenergic receptor (α2C-AR) (Homo sapiens, UniProt P18825)
T1 sequence (P18825 1-462): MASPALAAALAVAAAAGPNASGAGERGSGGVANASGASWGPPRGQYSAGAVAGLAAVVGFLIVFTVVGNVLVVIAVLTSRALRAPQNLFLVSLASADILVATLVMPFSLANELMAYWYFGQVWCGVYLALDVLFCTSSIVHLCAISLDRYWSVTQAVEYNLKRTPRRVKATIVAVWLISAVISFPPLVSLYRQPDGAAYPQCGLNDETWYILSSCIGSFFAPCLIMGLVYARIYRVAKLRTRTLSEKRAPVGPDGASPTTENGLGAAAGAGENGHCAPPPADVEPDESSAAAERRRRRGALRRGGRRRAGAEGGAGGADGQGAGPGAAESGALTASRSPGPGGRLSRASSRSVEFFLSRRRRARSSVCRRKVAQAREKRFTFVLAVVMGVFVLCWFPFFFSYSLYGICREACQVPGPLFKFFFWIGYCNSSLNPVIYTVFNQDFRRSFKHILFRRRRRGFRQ
Experiment: [3H]NE competition radioligand binding on HEK293T membranes
Type: cell-based

## NC[C@H](O)c1ccc(O)c(O)c1 [NE, L-(–)-norepinephrine]
  EC50: 1.2 ± 0.4 nM
